Measured values as given in ChEMBL document CHEMBL1134204, “Carbonic anhydrase inhibitors: synthesis of sulfonamides incorporating dtpa tails and of their zinc complexes with powerful topical antiglaucoma properties” (Bioorg Med Chem Lett, 2001).

Experiments:
Carbonic anhydrase 1 = Carbonic anhydrase 1 (Homo sapiens, UniProt P00915)
Carbonic anhydrase 4 = Carbonic anhydrase 4 (Homo sapiens, UniProt P22748)
Oryctolagus cuniculus [1] = assay: In vivo activity in normotensive rabbits (23.5+/-2.6 mmHg) for the intraocular pressure (IOP) lowering 90 min after topical administration with one drop of Carbonic anhydrase inhibitor at a pH 7; type: functional, Eye
Oryctolagus cuniculus [2] = assay: In vivo activity in normotensive rabbits (23.5+/-2.6 mmHg) for the intraocular pressure (IOP) lowering 60 min after topical administration with one drop of Carbonic anhydrase inhibitor at a pH 7; type: functional, Eye
[3] = not given; remark: listed apart in the source
Oryctolagus cuniculus [4] = assay: In vivo activity in glaucomatous rabbits (33.5+/-3.0 mmHg) for the intraocular pressure (IOP) lowering 90 min after topical administration with one drop of Carbonic anhydrase at a pH 7.0; type: functional, Eye
[5] = octanol/water
Oryctolagus cuniculus [6] = assay: In vivo activity in glaucomatous rabbits (33.5+/-3.0 mmHg) for the intraocular pressure (IOP) lowering 30 min after topical administration with one drop of Carbonic anhydrase at a pH 7.0; type: functional, Eye
Oryctolagus cuniculus [7] = assay: In vivo activity in normotensive rabbits (23.5+/-2.6 mmHg) for the intraocular pressure (IOP) lowering 30 min after topical administration with one drop of Carbonic anhydrase inhibitor at a pH 7; type: functional, Eye
Oryctolagus cuniculus [8] = assay: Compound was evaluated in vivo in normotensive rabbits (23.5+/-2.6 mmHg) for the intraocular pressure (IOP) lowering 30 min after topical administration with one drop of Carbonic anhydrase inhibitor at a pH 7.0; type: functional, Eye
Oryctolagus cuniculus [9] = assay: Compound was evaluated in vivo in normotensive rabbits (23.5+/-2.6 mmHg) for the intraocular pressure (IOP) lowering 90 min after topical administration with one drop of Carbonic hydrase inhibitor at a pH 7.5; type: functional, Eye
Oryctolagus cuniculus [10] = assay: In vivo activity in normotensive rabbits (23.5+/-2.6 mmHg) for the intraocular pressure (IOP) lowering 60 min after topical administration with one drop of Carbonic anhydrase inhibitor at a pH 7.0; type: functional, Eye
Oryctolagus cuniculus [11] = assay: Compound was evaluated in vivo in normotensive rabbits (23.5+/-2.6 mmHg) for the intraocular pressure (IOP) lowering 90 min after topical administration with one drop of Carbonic anhydrase inhibitor at a pH 7; type: functional, Eye
Oryctolagus cuniculus [12] = assay: In vivo activity in normotensive rabbits (23.5+/-2.6 mmHg) for the intraocular pressure (IOP) lowering 30 min after topical administration with one drop of Carbonic anhydrase inhibitor at a pH 7.0; type: functional, Eye

Chain of Carbonic anhydrase 1 (P00915 whole entry): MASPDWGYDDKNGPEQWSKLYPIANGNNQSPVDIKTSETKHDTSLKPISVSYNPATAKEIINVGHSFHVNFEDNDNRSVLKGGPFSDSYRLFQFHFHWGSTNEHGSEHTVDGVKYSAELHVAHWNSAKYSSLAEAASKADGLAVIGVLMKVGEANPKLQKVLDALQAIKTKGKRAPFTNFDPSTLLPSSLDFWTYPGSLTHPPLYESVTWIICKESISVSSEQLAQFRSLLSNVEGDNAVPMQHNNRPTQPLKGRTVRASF
Chain of Carbonic anhydrase 4 (P22748 whole entry): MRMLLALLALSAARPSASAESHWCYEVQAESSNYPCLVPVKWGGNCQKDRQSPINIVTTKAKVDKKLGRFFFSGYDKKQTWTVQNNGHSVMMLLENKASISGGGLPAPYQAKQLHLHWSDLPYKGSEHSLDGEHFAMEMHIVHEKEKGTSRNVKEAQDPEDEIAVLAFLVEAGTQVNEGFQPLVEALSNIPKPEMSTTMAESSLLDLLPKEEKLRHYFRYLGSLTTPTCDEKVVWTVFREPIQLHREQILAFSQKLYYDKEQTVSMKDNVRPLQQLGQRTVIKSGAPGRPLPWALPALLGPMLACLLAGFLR

Row | SMILES | Ki (Carbonic anhydrase 1) [µM] | Ki (Carbonic anhydrase 4) [µM] | further results
1 | NS(=O)(=O)c1cc(S(N)(=O)=O)c(NC(=O)CN(CCN(CCN(CC(=O)O)CC(=O)Nc2c(S(N)(=O)=O)cc(S(N)(=O)=O)c(Cl)c2Cl)CC(=O)O)CC(=O)O)c(Cl)c1Cl | 0.043 | 0.025 | –
2 | NS(=O)(=O)c1nc2ccc(OCCOC(=O)CN(CCN(CCN(CC(=O)O)CC(=O)O)CC(=O)O)CC(=O)O)cc2s1 | 0.03 | 0.005 | –
3 | Cn1nc(S(N)(=O)=O)s/c1=N/C(=O)CN(CCN(CCN(CC(=O)O)CC(=O)O)CC(=O)O)CC(=O)O | 0.062 | 0.019 | –
4 | Nc1ccc(S(N)(=O)=O)cc1 [SULFANILAMIDE] | – | 3 | –
5 | NS(=O)(=O)c1ccc(NNC(=O)CN(CCN(CCN(CC(=O)O)CC(=O)O)CC(=O)O)CC(=O)O)cc1 | 12 | 0.63 | –
6 | NS(=O)(=O)c1ccc(NC(=O)CN(CCN(CCN(CC(=O)O)CC(=O)O)CC(=O)O)CC(=O)O)c(Cl)c1 | 0.2 | 0.032 | –
7 | NS(=O)(=O)c1ccc(NC(=O)CN(CCN(CCN(CC(=O)O)CC(=O)Nc2ccc(S(N)(=O)=O)cc2)CC(=O)O)CC(=O)O)cc1 [listing 1 of 2 here] | – | 0.156 | Change in IOP (Oryctolagus cuniculus [1]): 9.5 mmHg; Change in IOP (Oryctolagus cuniculus [2]): 7.5 mmHg; Kin: 3.6 h⁻¹; Kin [3]: 6.5 h⁻¹; Change in IOP (Oryctolagus cuniculus [4]): 11 mmHg; logD [5]: 1.456; Change in IOP (Oryctolagus cuniculus [6]): 6 mmHg; Change in IOP (Oryctolagus cuniculus [7]): 4.4 mmHg
8 | NS(=O)(=O)c1cc(S(N)(=O)=O)c(NC(=O)CN(CCN(CCN(CC(=O)O)CC(=O)O)CC(=O)O)CC(=O)O)c(Cl)c1Cl | 0.058 | 0.036 | –
9 | NS(=O)(=O)c1ccc(CCNC(=O)CN(CCN(CCN(CC(=O)O)CC(=O)NCCc2ccc(S(N)(=O)=O)cc2)CC(=O)O)CC(=O)O)cc1 [listing 1 of 2 here] | – | 0.025 | –
10 | NNc1ccc(S(N)(=O)=O)cc1 | – | 3.2 | –
11 | Nc1ccc(S(N)(=O)=O)cc1F | – | 0.18 | –
12 | NS(=O)(=O)c1ccc(COC(=O)CN(CCN(CCN(CC(=O)O)CC(=O)OCc2ccc(S(N)(=O)=O)cc2)CC(=O)O)CC(=O)O)cc1 | 0.325 | 0.17 | –
13 | NS(=O)(=O)c1ccc(NC(=O)CN(CCN(CCN(CC(=O)O)CC(=O)Nc2ccc(S(N)(=O)=O)cc2F)CC(=O)O)CC(=O)O)c(F)c1 | 0.135 | 0.018 | –
14 | NS(=O)(=O)c1ccc(COC(=O)CN(CCN(CCN(CC(=O)O)CC(=O)O)CC(=O)O)CC(=O)O)cc1 | 0.51 | 0.265 | –
15 | Nc1ccc(S(N)(=O)=O)cc1I | – | 0.125 | –
16 | NS(=O)(=O)c1ccc(NNC(=O)CN(CCN(CCN(CC(=O)O)CC(=O)NNc2ccc(S(N)(=O)=O)cc2)CC(=O)O)CC(=O)O)cc1 | 9.8 | 0.43 | –
17 | NS(=O)(=O)c1ccc(CCOC(=O)CN(CCN(CCN(CC(=O)O)CC(=O)OCCc2ccc(S(N)(=O)=O)cc2)CC(=O)O)CC(=O)O)cc1 | 0.29 | 0.115 | –
18 | NS(=O)(=O)c1nnc(NC(=O)CN(CCN(CCN(CC(=O)O)CC(=O)Nc2nnc(S(N)(=O)=O)s2)CC(=O)[O-])CC(=O)[O-])s1.[Zn+2] | – | 0.004 | Change in IOP (Oryctolagus cuniculus [8]): 7.4 mmHg; Change in IOP (Oryctolagus cuniculus [9]): 9.5 mmHg
19 | NS(=O)(=O)c1nc2ccc(OC(=O)CN(CCN(CCN(CC(=O)O)CC(=O)Oc3ccc4nc(S(N)(=O)=O)sc4c3)CC(=O)O)CC(=O)O)cc2s1 | 0.021 | 0.005 | –
20 | NS(=O)(=O)c1ccc(NC(=O)CN(CCN(CCN(CC(=O)O)CC(=O)Nc2ccc(S(N)(=O)=O)cc2I)CC(=O)O)CC(=O)O)c(I)c1 | 0.07 | 0.024 | –
21 | NS(=O)(=O)c1nc2ccc(NC(=O)CN(CCN(CCN(CC(=O)O)CC(=O)Nc3ccc4nc(S(N)(=O)=O)sc4c3)CC(=O)O)CC(=O)O)cc2s1 | 0.025 | 0.006 | –
22 | NS(=O)(=O)c1ccc(NC(=O)CN(CCN(CCN(CC(=O)O)CC(=O)Nc2ccc(S(N)(=O)=O)cc2)CC(=O)O)CC(=O)O)cc1 [listing 2 of 2 here] | – | 0.1 | –
23 | NS(=O)(=O)c1ccc(CCNC(=O)CN(CCN(CCN(CC(=O)O)CC(=O)O)CC(=O)O)CC(=O)O)cc1 | 0.29 | 0.036 | –
24 | NS(=O)(=O)c1cccc(NC(=O)CN(CCN(CCN(CC(=O)O)CC(=O)O)CC(=O)O)CC(=O)O)c1 | 7.2 | 0.5 | –
25 | NS(=O)(=O)c1ccc(CNC(=O)CN(CCN(CCN(CC(=O)O)CC(=O)NCc2ccc(S(N)(=O)=O)cc2)CC(=O)O)CC(=O)O)cc1 [listing 1 of 2 here] | – | 0.021 | –
26 | NS(=O)(=O)c1ccc(CNC(=O)CN(CCN(CCN(CC(=O)O)CC(=O)O)CC(=O)O)CC(=O)O)cc1 | 0.55 | 0.04 | –
27 | NS(=O)(=O)c1ccccc1NC(=O)CN(CCN(CCN(CC(=O)O)CC(=O)O)CC(=O)O)CC(=O)O | 8.6 | 0.55 | –
28 | NS(=O)(=O)c1ccc(NC(=O)CN(CCN(CCN(CC(=O)O)CC(=O)Nc2ccc(S(N)(=O)=O)cc2Cl)CC(=O)O)CC(=O)O)c(Cl)c1 | 0.155 | 0.027 | –

Row | SMILES | Ki (Carbonic anhydrase 1) [µM] | Ki (Carbonic anhydrase 4) [µM] | further results
29 | NS(=O)(=O)c1ccc(CCNC(=O)CN(CCN(CCN(CC(=O)O)CC(=O)NCCc2ccc(S(N)(=O)=O)cc2)CC(=O)O)CC(=O)O)cc1 [listing 2 of 2 here] | – | 0.016 | –
30 | NS(=O)(=O)c1nnc(NC(=O)CN(CCN(CCN(CC(=O)O)CC(=O)Nc2nnc(S(N)(=O)=O)s2)CC(=O)O)CC(=O)O)s1 | – | 0.007 | Kin: 3.9 h⁻¹; Kin [3]: 6.2 h⁻¹; logD [5]: 1.961
31 | NS(=O)(=O)c1ccc(NC(=O)CN(CCN(CCN(CC(=O)O)CC(=O)Nc2ccc(S(N)(=O)=O)cc2Br)CC(=O)O)CC(=O)O)c(Br)c1 | 0.079 | 0.021 | –
32 | Nc1ccc(S(N)(=O)=O)cc1Br | – | 0.066 | –
33 | NS(=O)(=O)c1ccc(CNC(=O)CN(CCN(CCN(CC(=O)O)CC(=O)NCc2ccc(S(N)(=O)=O)cc2)CC(=O)O)CC(=O)O)cc1 [listing 2 of 2 here] | – | 0.037 | –
34 | NS(=O)(=O)c1nc2ccc(OCCO)cc2s1 | – | 0.015 | –
35 | NCCC(=O)Nc1nnc(S(N)(=O)=O)s1 | – | 0.125 | –
36 | Nc1c(S(N)(=O)=O)cc(S(N)(=O)=O)c(Cl)c1Cl | – | 0.175 | –
37 | NS(=O)(=O)c1ccc(CCO)cc1 | – | 0.45 | –
38 | NS(=O)(=O)c1ccc(NC(=O)CN(CCN(CCN(CC(=O)O)CC(=O)O)CC(=O)O)CC(=O)O)c(Br)c1 | 0.096 | 0.027 | –
39 | NS(=O)(=O)c1ccc(NC(=O)CN(CCN(CCN(CC(=O)O)CC(=O)O)CC(=O)O)CC(=O)O)cc1 | 4.1 | 0.18 | Change in IOP (Oryctolagus cuniculus [10]): 4.5 mmHg; Change in IOP (Oryctolagus cuniculus [11]): 7.2 mmHg; Change in IOP (Oryctolagus cuniculus [12]): 3.1 mmHg
40 | NS(=O)(=O)c1nnc(NC(=O)CCNC(=O)CN(CCN(CCN(CC(=O)O)CC(=O)NCCC(=O)Nc2nnc(S(N)(=O)=O)s2)CC(=O)O)CC(=O)O)s1 | 0.102 | 0.008 | –
41 | NS(=O)(=O)c1nnc(NC(=O)CCNC(=O)CN(CCN(CCN(CC(=O)O)CC(=O)O)CC(=O)O)CC(=O)O)s1 | 0.11 | 0.016 | –
42 | Nc1ccc2nc(S(N)(=O)=O)sc2c1 | – | 0.019 | –
43 | NS(=O)(=O)c1ccc(NC(=O)CN(CCN(CCN(CC(=O)O)CC(=O)O)CC(=O)O)CC(=O)O)c(I)c1 | 0.079 | 0.029 | –
44 | NS(=O)(=O)c1nc2ccc(OC(=O)CN(CCN(CCN(CC(=O)O)CC(=O)O)CC(=O)O)CC(=O)O)cc2s1 | 0.032 | 0.006 | –
45 | NS(=O)(=O)c1cc(S(N)(=O)=O)c(NC(=O)CN(CCN(CCN(CC(=O)O)CC(=O)Nc2cc(Cl)c(S(N)(=O)=O)cc2S(N)(=O)=O)CC(=O)O)CC(=O)O)cc1Cl | 0.063 | 0.041 | –
46 | NS(=O)(=O)c1cc(S(N)(=O)=O)c(NC(=O)CN(CCN(CCN(CC(=O)O)CC(=O)O)CC(=O)O)CC(=O)O)cc1Cl | 0.087 | 0.052 | –
47 | NS(=O)(=O)c1cccc(NC(=O)CN(CCN(CCN(CC(=O)O)CC(=O)Nc2cccc(S(N)(=O)=O)c2)CC(=O)O)CC(=O)O)c1 | – | 0.425 | –
48 | NS(=O)(=O)c1ccc(NC(=O)CN(CCN(CCN(CC(=O)O)CC(=O)O)CC(=O)O)CC(=O)O)c(F)c1 | 0.18 | 0.029 | –
49 | Nc1ccccc1S(N)(=O)=O | – | 1.31 | –
50 | Cn1nc(S(N)(=O)=O)s/c1=N\C(=O)CN(CCN(CCN(CC(=O)O)CC(=O)/N=c1/sc(S(N)(=O)=O)nn1C)CC(=O)O)CC(=O)O [listing 1 of 2 here] | 0.043 | 0.005 | –
51 | NS(=O)(=O)c1nc2ccc(OCCOC(=O)CN(CCN(CCN(CC(=O)O)CC(=O)OCCOc3ccc4nc(S(N)(=O)=O)sc4c3)CC(=O)O)CC(=O)O)cc2s1 | 0.016 | 0.004 | –
52 | Cn1nc(S(N)(=O)=O)s/c1=N\C(=O)CN(CCN(CCN(CC(=O)O)CC(=O)/N=c1/sc(S(N)(=O)=O)nn1C)CC(=O)O)CC(=O)O [listing 2 of 2 here] | 0.054 | 0.009 | –
53 | NS(=O)(=O)c1nc2ccc(NC(=O)CN(CCN(CCN(CC(=O)O)CC(=O)O)CC(=O)O)CC(=O)O)cc2s1 | 0.036 | 0.009 | –
54 | NS(=O)(=O)c1ccc(CCOC(=O)CN(CCN(CCN(CC(=O)O)CC(=O)O)CC(=O)O)CC(=O)O)cc1 | 0.36 | 0.19 | –
55 | NS(=O)(=O)c1ccccc1NC(=O)CN(CCN(CCN(CC(=O)O)CC(=O)Nc1ccccc1S(N)(=O)=O)CC(=O)O)CC(=O)O | 5.4 | 0.33 | –
